From patent publication US11981677B2, “Further substituted triazolo quinoxaline derivatives” (Grünenthal GmbH, priority 2018, dated 2024)

Target: T1, Glucocorticoid Receptor (Homo sapiens, UniProt P04150)
T1 construct: expressed in transfected cells
T1 sequence (P04150 524-758 limits assumed): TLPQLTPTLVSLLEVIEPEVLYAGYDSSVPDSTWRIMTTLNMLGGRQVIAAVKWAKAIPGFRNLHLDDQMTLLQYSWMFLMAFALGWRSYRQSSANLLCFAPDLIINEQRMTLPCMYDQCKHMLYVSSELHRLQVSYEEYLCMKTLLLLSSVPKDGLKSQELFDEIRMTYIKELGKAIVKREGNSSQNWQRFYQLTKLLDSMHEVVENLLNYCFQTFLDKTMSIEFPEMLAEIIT
Assay: Agonistic mode of action on the glucocorticoid receptor (CHO-Gal4/GR luciferase reporter cell line)
Format: cell-based
Conditions: CHO-Gal4/GR luciferase reporter cells; observed in the agonistic assay or the antagonistic assay (mode not given); read-out: IC50 or EC50 range
Summary of the method: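 CHO cells stably expressing GAL4 DBD–GR ligand-binding domain fusion with GAL4-UAS firefly luciferase reporter, seeded 24 h, then treated in Opti-MEM with 8 half-log concentrations from 10 μM to 0.003 μM (0.5% DMSO), quadruplicate. Luminescence read on FLIPR after lysis with Triton/luciferin; EC50 calculated.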

Cc1c[nH]c2c(-c3cc(F)c4c(c3C3CC3)-n3c(C)nnc3C(C)(C)N4)cccc12 [Example 472, 9-Cyclopropyl-6-fluoro-1,4,4-trimethyl-8-(3-methyl-1H-indol-7-yl)-5H-[1,2,4]triazolo[4,3-a]quinoxaline]
IC50 or EC50 (antagonist or agonist mode, not stated per compound): 100 to 1000 nM

COc1c(-c2cc(F)cc3c2ccn3S(C)(=O)=O)cc(F)c2c1-n1c(C)nnc1C(C)(C)N2 [Example 56, 6-Fluoro-8-(6-fluoro-1-methylsulfonyl-1H-indol-4-yl)-9-methoxy-1,4,4-trimethyl-5H-[1,2,4]triazolo[4,3-a]quinoxaline]
IC50 or EC50 (antagonist or agonist mode, not stated per compound): 100 to 1000 nM

Cc1c(-c2cccc3c2ccn3C)cc(F)c2c1-n1c(C)nnc1C(C)(C)N2 [Example 484, 6-Fluoro-1,4,4,9-tetramethyl-8-(1-methyl-1H-indol-4-yl)-5H-[1,2,4]triazolo[4,3-a]quinoxaline]
IC50 or EC50 (antagonist or agonist mode, not stated per compound): < 100 nM

Cc1c(-c2cccc3[nH]ccc23)cc(F)c2c1-n1c(C)nnc1C(C)(C)N2 [Example 468, 6-Fluoro-8-(1H-indol-4-yl)-1,4,4,9-tetramethyl-5H-[1,2,4]triazolo[4,3-a]quinoxaline]
IC50 or EC50 (antagonist or agonist mode, not stated per compound): < 100 nM

Cc1n[nH]c2c(-c3cc(F)c4c(c3C(F)F)-n3c(C)nnc3C(C)(C)N4)cccc12 [Example 466, 9-(difluoromethyl)-6-fluoro-1,4,4-trimethyl-8-(3-methyl-1H-indazol-7-yl)-4,5-dihydro-[1,2,4]triazolo[4,3-a]quinoxaline]
IC50 or EC50 (antagonist or agonist mode, not stated per compound): 100 to 1000 nM

Cc1c(-c2cc(Cl)cc3[nH]ccc23)cc(F)c2c1-n1c(C)nnc1C(C)(C)N2 [Example 506, 8-(6-Chloro-1H-indol-4-yl)-6-fluoro-1,4,4,9-tetramethyl-5H-[1,2,4]triazolo[4,3-a]quinoxaline]
IC50 or EC50 (antagonist or agonist mode, not stated per compound): 100 to 1000 nM

Cc1c(-c2cc(F)cc3[nH]ncc23)cc(F)c2c1-n1c(C)nnc1C(C)(C)N2 [Example 496, 6-Fluoro-8-(6-fluoro-1H-indazol-4-yl)-1,4,4,9-tetramethyl-5H-[1,2,4]triazolo[4,3-a]quinoxaline]
IC50 or EC50 (antagonist or agonist mode, not stated per compound): 100 to 1000 nM

Cc1c(-c2cccc3c2ccn3S(C)(=O)=O)c(F)c(F)c2c1-n1c(C)nnc1C(C)(C)N2 [Example 448, 6,7-difluoro-1,4,4,9-tetramethyl-8-(1-(methylsulfonyl)-1H-indol-4-yl)-4,5-dihydro-[1,2,4]triazolo[4,3-a]quinoxaline]
IC50 or EC50 (antagonist or agonist mode, not stated per compound): < 100 nM

Cc1c(-c2cccc3c2ccn3S(=O)(=O)C2CC2)cc(F)c2c1-n1c(C)nnc1C(C)(C)N2 [Example 391, 8-[1-(Cyclopropylsulfonyl)-1H-indol-4-yl]-6-fluoro-1,4,4,9-tetramethyl-5H-[1,2,4]triazolo[4,3-a]quinoxaline]
IC50 or EC50 (antagonist or agonist mode, not stated per compound): < 100 nM

CCS(=O)(=O)n1ccc2c(-c3cc(F)c4c(c3NC)-n3c(C)nnc3C(C)(C)N4)cc(F)cc21 [Example 479, [8-[1-(Ethylsulfonyl)-6-fluoro-1H-indol-4-yl]-6-fluoro-1,4,4-trimethyl-5H-[1,2,4]triazolo[4,3-a]quinoxalin-9-yl]-methyl-amine]
IC50 or EC50 (antagonist or agonist mode, not stated per compound): 100 to 1000 nM

Cc1c(-c2cc(F)cc3c(C)c[nH]c23)c(F)c(F)c2c1-n1c(C)nnc1C(C)(C)N2 [Example 514, 6,7-Difluoro-8-(5-fluoro-3-methyl-1H-indol-7-yl)-1,4,4,9-tetramethyl-5H-[1,2,4]triazolo[4,3-a]quinoxaline]
IC50 or EC50 (antagonist or agonist mode, not stated per compound): < 100 nM
